Reference: patent US20250250251A1, “PIPERIDINYLPYRIDINYLCARBONITRILE DERIVATIVES AS INHIBITORS OF GLUTAMINYL-PEPTIDE CYCLOTRANSFERASE AND GLUTAMINYL-PEPTIDE CYCLOTRANSFERASE LIKE PROTEIN” (Boehringer Ingelheim International GmbH, priority 2024, published 2025)
pIC50: −log10 of the molar value. Read-outs that look alike come from different tables or passages of the source.

Assays:
QPCTL = target: T1, QPCTL (Homo sapiens, UniProt Q9NXS2); assay: Assay A: biochemical QPCTL activity assay (MALDI-TOF MS, CD47 peptide substrate); details: read-out: Inhibition of QPCTL: IC50
T1 construct: made in house
T1 sequence (Q9NXS2 whole entry, species assumed): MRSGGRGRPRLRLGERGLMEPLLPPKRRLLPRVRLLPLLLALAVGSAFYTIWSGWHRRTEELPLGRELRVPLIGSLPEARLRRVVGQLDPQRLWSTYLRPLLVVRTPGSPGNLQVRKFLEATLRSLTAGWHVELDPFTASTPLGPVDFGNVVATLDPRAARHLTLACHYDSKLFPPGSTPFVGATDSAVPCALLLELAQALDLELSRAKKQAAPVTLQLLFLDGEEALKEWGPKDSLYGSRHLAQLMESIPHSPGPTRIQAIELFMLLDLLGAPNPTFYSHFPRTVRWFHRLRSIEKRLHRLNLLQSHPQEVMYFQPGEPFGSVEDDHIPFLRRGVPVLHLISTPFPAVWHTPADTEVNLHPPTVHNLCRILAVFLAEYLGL
Protocol: (§1) QPCT or QPCTL dependent conversion of N-terminal glutamine to pyroglutamate of CD47 was monitored via MALDI-TOF MS. Test compounds were dissolved in 100% DMSO and serially diluted into clear 1,536-well microtiter plates. Enzymatic reactions were set up in assay buffer containing 20 mM Tris pH 7.5, 0.1 mM TCEP, 0.01% BSA, and 0.001% Tween20. […] The plates were incubated for 10 min in a humidified incubator at 24° C. Subsequently, 2.5 μL of CD47 peptide substrate surrogate (^19[…]^33) was added to each well (final concentration: 10 μM for QPCTL/20 μM for QPCT). The plates were mixed for 30 sec at 1,000 rpm and subsequently incubated for 40 min in a humidified incubator at 24° C. […] The plates were sealed with an adhesive foil, mixed for 30 s at 1,000 rpm and stored at room temperature until preparation of the MALDI target plates. MALDI target plates were prepared as described previously. […] QPCT or QPCTL activity was monitored by calculating the ratio between product and internal standard signals followed by normalization to high (100% activity) and low (0% activity) controls. Determination of compound potencies was obtained by fitting the dose-response data to a four-parameter logistical equation.

QPCT = target: T2, QPCT (Homo sapiens, UniProt Q16769); assay: Assay A: biochemical QPCT activity assay (MALDI-TOF MS, CD47 peptide substrate); details: read-out: Inhibition of QPCT: IC50
T2 construct: purchased Origine (OriGene) TP700028
T2 sequence (Q16769 29-361): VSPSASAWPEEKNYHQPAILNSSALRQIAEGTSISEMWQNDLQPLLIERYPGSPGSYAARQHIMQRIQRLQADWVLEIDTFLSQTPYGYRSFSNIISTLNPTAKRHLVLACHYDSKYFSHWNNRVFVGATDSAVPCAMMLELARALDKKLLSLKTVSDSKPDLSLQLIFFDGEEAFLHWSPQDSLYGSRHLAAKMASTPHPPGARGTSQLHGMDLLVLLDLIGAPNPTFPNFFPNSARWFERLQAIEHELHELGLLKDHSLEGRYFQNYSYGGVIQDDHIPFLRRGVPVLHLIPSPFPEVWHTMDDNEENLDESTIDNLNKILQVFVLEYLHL
Protocol: as §1

[1] = tested on: SIRPα signalling induced by Raji cells; assay: Assay B: SIRPα signalling assay using Raji cells; assay type: cell-based; details: Homo sapiens, read-out: Inhibition of SIRPα signalling induced by Raji cells: IC50
Protocol: Bioassay reagent 1 of the PathHunter Bioassay detection kit (DiscoverX 93-0001) was added to each well of the plate using a multichannel pipette followed by a 15 min incubation at room temperature. Afterwards bioassay reagent 2 was added followed by 60 min incubation at room temperature (incubation in the dark).
The analysis of the data was performed using the luminescence signal generated by beta-galactosidase in the PathHunter reporter cell line. The luminescence measurement was done using a Pherastar Multi-Mode Reader.

[2] = tested on: SIRPα signalling induced by A549 cells; assay: Assay B: SIRPα signalling assay using A549 cells; assay type: cell-based; details: Homo sapiens, read-out: Inhibition of SIRPα signalling induced by A549 cells: IC50
Protocol: Two cell types are independently used: the Raji cell line (lymphoblast-like human cell line derived from B lymphocytes from a Burkitt's lymphoma patient in 1963) and A549 cells (adenocarcinoma human alveolar basal epithelial cells).
Test compounds were dissolved in 100% DMSO and serially diluted into a white 384-well microtiter cell culture plate (PerkinElmer #60076780 in case of Raji assay; PDL-coated plates Greiner #781945 in case of A549 assay). 5000 Raji cells (ATCC #CC86) or 5000 A549 cells (ATCC #CCL-185) in Assay Complete Cell Plating reagent 30 (DiscoverX 93-0563R30B) were added per well. The assay plate was incubated for 48 h at 37° C., 95% humidity and 5% CO2. 15000 reporter cells (Jurkat PathHunter SIRPαV1, DiscoverX #93-1135C19) were added to each well, and the plate was incubated for 5 h at 37° C., 95% humidity and 5% CO2. Bioassay reagent 1 of the PathHunter Bioassay detection kit (DiscoverX 93-0001) was added to each well of the plate using a multichannel pipette followed by a 15 min incubation at room temperature. Afterwards bioassay reagent 2 was added followed by 60 min incubation at room temperature (incubation in the dark).
The analysis of the data was performed using the luminescence signal generated by beta-galactosidase in the PathHunter reporter cell line. The luminescence measurement was done using a Pherastar Multi-Mode Reader. Dose-response curves & IC50 data were calculated with 4-parameter sigmoidal dose response formula.

[3] = Assay C: permeability in CACO-2 cells; assay type: in vitro ADME; details: human; for efflux ratio: read-out: Efflux Ratio
Protocol: Caco-2 cells (1-2×10^5 cells/1 cm^2 area) are seeded on filter inserts (Costar transwell polycarbonate or PET filters, 0.4 μm pore size) and cultured (DMEM) for 10 to 25 days. Compounds are dissolved in appropriate solvent (like DMSO, 1-20 mM stock solutions). […] The transport solution (TL) is applied to the apical or basolateral donor side for measuring A-B or B-A permeability (3 filter replicates), respectively. Samples are collected at the start and end of experiment from the donor and at various time intervals for up to 2 hours also from the receiver side for concentration measurement by HPLC-MS/MS or scintillation counting. Sampled receiver volumes are replaced with fresh receiver solution.
Efflux ratio (ER)=permeability B−A/permeability A−B

CYP3A4 mRNA = assay: Assay D: CYP induction screening assay in primary human hepatocytes; assay type: in vitro ADME; details: 48 h
Protocol: Cryopreserved plateable human hepatocytes (single donor. BioIVT) were thawed and plated in Collagen-I coated 96-well-plates at a cell density of 0.07 million cells per well.
After a 6 h attachment period, the seeding medium was replaced by serum-free William's medium E supplemented with Matrigel (0.25 mg/ml) and allowed to recover overnight. 24 h post-seeding, serum-free Williams E medium containing the test compound at a final concentration of […] and a final DMSO content of 0.1% and 0.1% DMSO (solvent-treated control), respectively, was added to predefined wells. Exposure solutions were renewed after 24 h.
After 48 h of treatment in total, the effect of the test compounds on CYP3A4 mRNA expression was assessed using the QuantiGene Plex Gene Expression Assay. Hepatocytes were lysed and total RNA was extracted using the QuantiGene Sample Processing Kit according to the instructions of the manufacturer.
mRNA quantification was conducted using a customized QuantiGene Plex Panel to analyse CYP3A4 and the housekeeper genes RPL32, EIF4E2 and GUSB according to the instructions of the manufacturer and measured on a Luminex™ instrument. Signal was reported as median fluorescence intensity (MFI), which is proportional to the number of target RNA molecules present in the sample.
For calculation of CYP3A4 mRNA induction, the signal for CYP3A4 was normalized against the geometric mean of the signal obtained for the housekeeper genes for hepatocytes exposed to test compounds in relation to solvent-treated samples according to the following equation: […]

murine hepatocytes = assay: Assay E: stability in murine hepatocytes; assay type: in vitro ADME, mouse; details: 1 μM, 5% species serum
Protocol: The metabolic degradation of the test compound is assayed in a murine hepatocyte suspension.
Murine hepatocytes (typically cryopreserved) are incubated in an appropriate buffer system (e.g. Dulbecco's modified eagle medium plus 3.5 μg glucagon/500 mL, 2.5 mg insulin/500 mL and 3.75 mg/500 mL hydrocortison) containing 5% species serum.
Following a (typically) 30 min preincubation in an incubator (37° C., 10% CO2) 5 μl of test compound solution (80 μM; from 2 mM in DMSO stock solution diluted 1:25 with medium) are added into 395 μl hepatocyte suspension (cell density in the range 0.25-5 Mio cells/mL, typically 1 Mio cells/mL; final concentration of test compound 1 μM, final DMSO concentration 0.05%).
The cells are incubated for six hours (incubator, orbital shaker) and samples (25 μl) are taken at 0, 0.5, 1, 2, 4 and 6 hours. Samples are transferred into acetonitrile and pelleted by centrifugation (5 min). The supernatant is transferred to a new 96-deepwell plate, evaporated under nitrogen and resuspended.
Decline of parent compound is analyzed by HPLC-MS/MS
CLint is calculated as follows CL_[…]=Dose/AUC=(C0/CD)/(AUD+clast/k)×1000/60. C0: initial concentration in the incubation [μM], CD: cell density of vital cells [10e6 cells/mL], AUD: area under the data [μM×h], clast: concentration of last data point [μM], k: slope of the regression line for parent decline [h−1].
The calculated in vitro hepatic intrinsic clearance can be scaled up to the intrinsic in vivo hepatic Clearance and used to predict hepatic in vivo blood clearance (CL) by the use of a liver model (well stirred model).
[formula] [formula] [formula] • Hepatocellularity, mouse: 120×10e6 cells/g liver • Liver factor, mouse: 55 g/kg bodyweight • Blood flow, mouse: 90 ml/(min×kg)

[4] = Table 2, compounds of the invention
[5] = Table 4, compounds of the invention
[6] = pH 7.2, Table 7, compounds of the invention, CACO-2 cells
[7] = pH 7.2, Table 7, compounds of the invention, CACO-2 cells, permeability B-A/permeability A-B
[8] = Table 9, compounds of the invention
[9] = Table 12, compounds of the invention

SMILES: Cc1ncc(-c2cc(C#N)c(N3CCC(F)(c4nncn4C)CC3)c(-c3cnc4nn(C(F)(F)F)cc4c3)n2)cn1 [Example 25]
- pIC50 (QPCTL; [4]): 8.52
- pIC50 (QPCT; [4]): 8.52
- pIC50 [1, 5]: 6.74
- pIC50 [2, 5]: 7.28
- Papp A→B [3, 6]: 3.1 ×10⁻⁶ cm/s
- efflux ratio [3, 7]: 16.8
- n-fold induction of CYP3A4 at 10 μM (CYP3A4 mRNA; [8]): 0.8 n-fold
- Mouse Hepatocyte Stability QH (murine hepatocytes; [9]): 38%

SMILES: Cn1cc(-c2cc(C#N)c(N3CCC(F)(c4nncn4C)CC3)c(-c3cnc4nn(C(F)(F)F)cc4c3)n2)cn1 [Example 24]
- pIC50 (QPCTL; [4]): 8.70
- pIC50 (QPCT; [4]): 8.52
- pIC50 [1, 5]: 7.14
- pIC50 [2, 5]: 7.57
- Papp A→B [3, 6]: 3.4 ×10⁻⁶ cm/s
- efflux ratio [3, 7]: 17.9
- n-fold induction of CYP3A4 at 10 μM (CYP3A4 mRNA; [8]): 1.1 n-fold
- Mouse Hepatocyte Stability QH (murine hepatocytes; [9]): <12%

SMILES: Cc1nn(C)cc1-c1cc(C#N)c(N2CCC(F)(c3nncn3C)CC2)c(-c2cnc3nn(C(F)(F)F)cc3c2)n1 [Example 17]
- pIC50 (QPCTL; [4]): 8.70
- pIC50 (QPCT; [4]): 8.70
- pIC50 [1, 5]: 7.16
- pIC50 [2, 5]: 7.66
- Papp A→B [3, 6]: 5.1 ×10⁻⁶ cm/s
- efflux ratio [3, 7]: 9.4
- n-fold induction of CYP3A4 at 10 μM (CYP3A4 mRNA; [8]): 3.0 n-fold
- Mouse Hepatocyte Stability QH (murine hepatocytes; [9]): 18%

SMILES: Cn1cnnc1C1(F)CCN(c2c(C#N)cc(C3CC3)nc2-c2cnc3nn(C(F)(F)F)cc3c2)CC1 [Example 2]
- pIC50 (QPCTL; [4]): 9.00
- pIC50 (QPCT; [4]): 9.00
- pIC50 [1, 5]: 7.70
- pIC50 [2, 5]: 7.85
- Papp A→B [3, 6]: 37 ×10⁻⁶ cm/s
- efflux ratio [3, 7]: 1.6
- n-fold induction of CYP3A4 at 10 μM (CYP3A4 mRNA; [8]): 4.6 n-fold
- Mouse Hepatocyte Stability QH (murine hepatocytes; [9]): 49%

SMILES: Cn1cnnc1C1CCN(c2c(C#N)cccc2-c2ccc3ocnc3c2)CC1 [Compound 15, reference compound]
- pIC50 (QPCTL; Table 3, prior art compounds): 6.26
- pIC50 (QPCT; Table 3, prior art compounds): 5.97
- pIC50 ([1]; Table 5, prior art compounds): 5.22
- pIC50 ([2]; Table 5, prior art compounds): 5.50
- Papp A→B ([3]; Caco-2, pH 7.2): 11 ×10⁻⁶ cm/s
- efflux ratio ([3]; Caco-2, pH 7.2): 5.4
- n-fold induction of CYP3A4 at 10 μM (CYP3A4 mRNA; Table 10, prior art compounds): 8.7 n-fold
- Mouse Hepatocyte Stability QH (murine hepatocytes; Table 13, prior art compounds): 65%

SMILES: Cn1cnnc1C1(F)CCN(c2c(C#N)cc(-c3cccnc3)nc2-c2cnc3nn(C(F)(F)F)cc3c2)CC1 [Example 21]
- pIC50 (QPCTL; [4]): 9.00
- pIC50 (QPCT; [4]): 8.70
- pIC50 [1, 5]: 7.11
- pIC50 [2, 5]: 7.62
- Papp A→B [3, 6]: 6.8 ×10⁻⁶ cm/s
- efflux ratio [3, 7]: 11.9
- n-fold induction of CYP3A4 at 10 μM (CYP3A4 mRNA; [8]): 0.7 n-fold
- Mouse Hepatocyte Stability QH (murine hepatocytes; [9]): 35%

SMILES: Cn1cnnc1C1(F)CCN(c2c(C#N)cc(C(F)(F)F)nc2-c2cnc3nn(C(C)(C)C)c(C(F)F)c3c2)CC1 [Example 16]
- pIC50 (QPCTL; [4]): 8.52
- pIC50 (QPCT; [4]): 9.00
- pIC50 [1, 5]: 7.96
- pIC50 [2, 5]: 7.77
- Papp A→B [3, 6]: 34 ×10⁻⁶ cm/s
- efflux ratio [3, 7]: 1.8
- n-fold induction of CYP3A4 at 10 μM (CYP3A4 mRNA; [8]): 6.0 n-fold

SMILES: Cn1cnnc1C1(F)CCN(c2c(C#N)cc(C(F)(F)F)nc2-c2cc3cn(C(C)(C)C)nc3nc2C(F)F)CC1 [Example 14]
- pIC50 (QPCTL; [4]): 7.55
- pIC50 (QPCT; [4]): 7.96
- pIC50 [1, 5]: 6.93
- pIC50 [2, 5]: 7.36
- Papp A→B [3, 6]: 14 ×10⁻⁶ cm/s
- efflux ratio [3, 7]: 5.3
- Mouse Hepatocyte Stability QH (murine hepatocytes; [9]): <12%

SMILES: Cn1cncc1C1CCN(c2c(C#N)cccc2-c2ccc(F)nc2)CC1 [QP5038, reference compound]
- pIC50 ([1]; Table 5, prior art compounds): 7.68
- pIC50 ([2]; Table 5, prior art compounds): 8.22
- n-fold induction of CYP3A4 at 10 μM (CYP3A4 mRNA; Table 10, prior art compounds): 58.5 n-fold
- Mouse Hepatocyte Stability QH (murine hepatocytes; Table 13, prior art compounds): 97%
